According to patent publication US8663616B2, “Enzymatic peracid generation for use in oral care products” (E I du Pont de Nemours and Company, priority 2010, dated 2014):

Assays:
[1] = One-step bleaching of stained bovine enamel with targeted perhydrolase (Example 13); settings: 0.1% PAA
Method: (§1) Whiteness index (WI) is defined by the International Commission on Illumination (CIE) and described in ASTM method E313-05 and calculated for D65/10 incident light as: WI=Y+800*(0.3138−x)+1700*(0.3310−y) Where Y, x, and y are the luminance factor and the chromaticity coordinates respectively of the enamel substrate.
(§2) Bovine enamel incisors were prepared as indicated in Example 1. Stained bovine enamel blocks were hydrated in water at least 1 h prior to use to stabilize the color of the substrate. The color for each enamel block was measured after hydration prior to the start of the experiment. Two enamel samples were treated for each solution type. The solutions used were a buffer only control, 0.1% Peracetic Acid, a perhydrolase composition including 0.52 μM EZ-7 (C277S with enamel binding domain; SEQ ID NO: 429), 100 mM triacetin and 32.6 mM H2O2. All solutions were prepared in 100 mM sodium phosphate buffer, pH 7.2. All solutions were freshly prepared for each treatment point. The enzyme-triacetin-H2O2 combination was mixed immediately before enamel exposure. After each treatment step, each enamel block was rinsed with water and a color measurement was obtained. A treatment time of 30 min was repeated 4 times for each set of enamel substrates. The concentration of peracetic acid in solution after a 30 min treatment was evaluated by colorimetric detection of ABTS oxidation.

[2] = Peracetic acid in treatment solution by ABTS absorbance (Example 12); type: biochemical; settings: 1:100 dilution into ABTS reagent
From the text: (§3) The purpose of this example is to show the tooth bleaching effect of enzymatic generated peracetic acid in a one-step application and compare to the performance achieved with chemically derived peracetic acid. Two methods were developed to use a perhydrolytic enzyme (CE-7 perhydrolase) system to achieve the target level of tooth bleaching. The first method (referred to herein as the “one-step approach”) comprises combining different amounts of at least one CE-7 perhydrolase with triacetin (an example of a suitable ester substrate) and hydrogen peroxide to generate peracetic acid using model stained enamel substrates. Bovine enamel incisors were prepared as indicated in Example 1. Stained bovine enamel blocks were hydrated in water at least 1 hr prior to use to stabilize the color of the substrate. The color for each enamel block was measured after hydration prior to the start of the experiment. Three enamel samples were treated for each solution type. The solutions used were a buffer only control, 2.5% H2O2, 1% peracetic acid, a perhydrolase composition including 10 μM EZ-1 (C277S; SEQ ID NO: 424), 100 mM triacetin and 250 mM H2O2 and a no enzyme control of 100 mM triacetin and 250 mM H2O2. All solutions were prepared in 500 mM sodium phosphate buffer, pH 7.2. The high buffer strength was necessary to maintain the 1% peracetic acid solution at neutral pH. All solutions were freshly prepared for each treatment point. The enzyme-triacetin-H2O2 combination and triacetin-H2O2 combination was mixed immediately before enamel exposure. After each treatment step, each enamel block was rinsed with water and a color measurement was obtained. A total treatment time of 61 min was used with durations of exposure of 1 min, 5 min, 10 min, 15 min and 30 min. The concentration of peracetic acid in solution after the 1 min, 10 min and 30 min treatments was evaluated by colorimetric detection of ABTS oxidation.
(§4) Determination of the peracetic acid (PAA) concentration in the reaction mixtures by a colorimetric method was performed according to the method described by Dinu et. al. (supra). A reagent solution of 1 mM 2,2′-azino-bis(3-ethylbenzothiazoline)-6-sulfonate (ABTS), 50 μM potassium iodide in 125 mM potassium citrate buffer at pH 5.0 was prepared. […] The solution was analyzed for absorbance at 405 nm using a Microplate reader. A comparison of relative amounts of peracetic acid in solution was determined by comparing absorbance values directly.

[3] = Peracetic acid in treatment solution by ABTS (Example 13); type: biochemical; settings: after 30 min treatment
Method: as §4, §2

[4] = One-step bleaching of stained bovine enamel with perhydrolase system (Example 12)
From the text: as §1, §3

[5] = Peracetic acid vs hydrogen peroxide bleaching of coffee/tea stained bovine enamel (whiteness index); settings: for ΔWI: 0 to 61 min; for Whiteness Index 0 min: before exposure
From the text: This example describes the use of peracetic acid to achieve a bleaching effect on model stained enamel surfaces. Bovine enamel incisors were obtained from SE Dental (Baton Rouge, La.). Teeth were sectioned and cut into enamel slabs approximately 7 mm on each side using a DREMEL® rotary saw (Robert Bosch Power Tool Corporation; Chicago, Ill.) with a diamond blade. The enamel slabs were cleaned and lightly polished to remove surface debris. The enamel was pretreated with a mixture of coffee and tea for 1-5 days in order to stain to a color similar to human stained teeth.
Each enamel block was hydrated in water for at least 1 hr prior to use. Color measurements for the substrate were obtained prior to exposure to test solutions. Solutions of peracetic acid were prepared from a 32% stock in 500 mM sodium phosphate buffer, pH 7.2. A solution of 2.5% H2O2 was also prepared in the same buffer. Multiple enamel blocks were exposed to each solution for 1 min followed by additional exposures of 5 min, 10 min, 15 min and 30 min. For each treatment, a fresh solution of peracetic acid and hydrogen peroxide was prepared from the stock solutions. After each treatment the enamel blocks were rinsed with water and measured with a Konica-Minolta 2600d spectrophotometer.
as §1

For `CC(=O)OO` [PAA, peracetic acid], the “Whiteness Index 30 min” value [1] was −101.9, the “Whiteness Index 60 min” value [1] was −91.9 and the “Whiteness Index 90 min” value [1] was −80.2. The “Whiteness Index 120 min” value [1] was −70.8, the ΔWI ([1]; 0 to 120 min) was 55.0 and the “Whiteness Index 0 min” value ([1]; before treatment, 100 mM sodium phosphate pH 7.2, average of two substrates) was −125.8. The “Absorbance 405 nm, 1 min” value ([2]; peracetic acid at end of 1 min treatment) was 2.579, the “Absorbance 405 nm, 10 min” value ([2]; peracetic acid at end of 10 min treatment) was 1.863 and the “Absorbance 405 nm, 30 min” value ([2]; peracetic acid at end of 30 min treatment) was 2.874. For the same compound, the “PAA (ppm)” value [3] was 920 ppm, the “Absorbance 405 nm Tooth2” value ([3]; 1:10 dilution into ABTS reagent) was 1.043 and the “Absorbance 405 nm Tooth1” value ([3]; 1:10 dilution into ABTS reagent, 0.1% PAA or 0.52 μM EZ-7/100 mM triacetin/32.6 mM H2O2) was 1.103. For the same compound, the “Whiteness Index 0 min” value ([4]; before treatment, 2.5% H2O2, 100 mM triacetin/250 mM H2O2, 1% PAA, 10 μM EZ-1/100 mM triacetin/250 mM H2O2, pH 7.2) was −145.7, the ΔWI ([4]; one-step, 0 to 61 min) was 86.3 and the “Whiteness Index 1 min” value ([4]; one-step, cumulative treatment 1 min) was −119.6. The “Whiteness Index 6 min” value ([4]; one-step, cumulative treatment 6 min) was −73.4, the “Whiteness Index 16 min” value ([4]; one-step, cumulative treatment 16 min) was −62.9 and the “Whiteness Index 31 min” value ([4]; one-step, cumulative treatment 31 min) was −59.0. The “Whiteness Index 61 min” value ([4]; one-step, cumulative treatment 61 min) was −59.4, the ΔWI ([5]; Table 1, 2.5% H2O2 or 0.5% PAA) was 90.8 and the “Whiteness Index 1 min” value ([5]; Table 1, 2.5% H2O2 or 0.5% PAA, cumulative exposure 1 min) was −111.6. The “Whiteness Index 6 min” value ([5]; Table 1, 2.5% H2O2 or 0.5% PAA, cumulative exposure 6 min) was −80.7, the “Whiteness Index 16 min” value ([5]; Table 1, 2.5% H2O2 or 0.5% PAA, cumulative exposure 16 min) was −56.5 and the “Whiteness Index 31 min” value ([5]; Table 1, 2.5% H2O2 or 0.5% PAA, cumulative exposure 31 min) was −44.5. The “Whiteness Index 61 min” value ([5]; Table 1, 2.5% H2O2 or 0.5% PAA, cumulative exposure 61 min) was −38.3, the “Whiteness Index 0 min” value ([5]; Table 1, 2.5% H2O2 or 0.5% PAA, 500 mM sodium phosphate pH 7.2) was −129.1 and the “Whiteness Index 1 min” value ([5]; Table 2, 0.05% PAA) was −97.1. The “Whiteness Index 6 min” value ([5]; Table 2, 0.05% PAA) was −93.1, the “Whiteness Index 16 min” value ([5]; Table 2, 0.05% PAA) was −70.1 and the “Whiteness Index 31 min” value ([5]; Table 2, 0.05% PAA) was −59.0. The “Whiteness Index 61 min” value ([5]; Table 2, 0.05% PAA) was −34.7, the ΔWI ([5]; Table 2, 0.05% PAA) was 68.7 and the “Whiteness Index 0 min” value ([5]; Table 2, 0.05% PAA) was −103.4. The “Whiteness Index 1 min” value ([5]; Table 2, 0.2% PAA) was −85.5, the “Whiteness Index 6 min” value ([5]; Table 2, 0.2% PAA) was −67.0 and the “Whiteness Index 16 min” value ([5]; Table 2, 0.2% PAA) was −47.5. For the same compound, the “Whiteness Index 31 min” value ([5]; Table 2, 0.2% PAA) was −31.7, the “Whiteness Index 61 min” value ([5]; Table 2, 0.2% PAA) was −16.2 and the ΔWI ([5]; Table 2, 0.2% PAA) was 74.4. The “Whiteness Index 0 min” value ([5]; Table 2, 0.2% PAA) was −90.6, the “Whiteness Index 1 min” value ([5]; Table 2, 0.5% PAA) was −86.6 and the “Whiteness Index 6 min” value ([5]; Table 2, 0.5% PAA) was −64.1. For the same compound, the “Whiteness Index 16 min” value ([5]; Table 2, 0.5% PAA) was −46.4, the “Whiteness Index 31 min” value ([5]; Table 2, 0.5% PAA) was −32.7 and the “Whiteness Index 61 min” value ([5]; Table 2, 0.5% PAA) was −24.7. The ΔWI ([5]; Table 2, 0.5% PAA) was 72.8, the “Whiteness Index 0 min” value ([5]; Table 2, 0.5% PAA) was −97.5 and the “Whiteness Index 1 min” value ([5]; Table 2, 1% PAA) was −89.3. For the same compound, the “Whiteness Index 16 min” value ([5]; Table 2, 1% PAA) was −36.0, the “Whiteness Index 31 min” value ([5]; Table 2, 1% PAA) was −20.6 and the “Whiteness Index 61 min” value ([5]; Table 2, 1% PAA) was −5.1. For the same compound, the ΔWI ([5]; Table 2, 1% PAA) was 97.7, the “Whiteness Index 0 min” value ([5]; Table 2, 1% PAA) was −102.8 and the “bleaching of stained enamel (in words)” value ([5]; compared to buffer and hydrogen peroxide controls) was “effective bleaching agent”.
